Results on one compound are retold here after ChEMBL document CHEMBL5331124, “Degradation of Hexokinase 2 Blocks Glycolysis and Induces GSDME-Dependent Pyroptosis to Amplify Immunogenic Cell Death for Breast Cancer Therapy” (J Med Chem, 2023).

SMILES strings stand for the structures. The source made the active and inactive calls. The calls are words filed in the database; no cut-off is given here.

By DC50 is commonly meant the midpoint of the concentration-degradation curve. A low value points to degradation at low concentration.

In one series the test system is HGC-27. The series is described as follows: Potency index, ratio of IC50 for lonidamine to test compound IC50 for human HGC-27 cells assessed as cell growth inhibition measured for 72 hrs by MTT assay. The class given is functional.
For the next series, the system named is MDA-MB-231. The series is described as follows: Cytotoxicity against human MDA-MB-231 cells assessed as inhibition of cell growth at 1 to 100 uM incubated for 48 hrs by CCK-8 assay. The conditions noted are these: dose 1-100 µM. It is filed as functional, cell-based.
The test system of series [1] is 4T1. The series is described as follows: Inhibition of colony formation in mouse 4T1 cells at 5 to 20 uM incubated for 48 hrs by giemsa staining based analysis. The class given is functional, cell-based. The conditions noted are these: dose 5-20 µM.
The target in series [2] is T1, Hexokinase-2 (Mus musculus) (UniProt O08528).
T1 sequence (whole entry): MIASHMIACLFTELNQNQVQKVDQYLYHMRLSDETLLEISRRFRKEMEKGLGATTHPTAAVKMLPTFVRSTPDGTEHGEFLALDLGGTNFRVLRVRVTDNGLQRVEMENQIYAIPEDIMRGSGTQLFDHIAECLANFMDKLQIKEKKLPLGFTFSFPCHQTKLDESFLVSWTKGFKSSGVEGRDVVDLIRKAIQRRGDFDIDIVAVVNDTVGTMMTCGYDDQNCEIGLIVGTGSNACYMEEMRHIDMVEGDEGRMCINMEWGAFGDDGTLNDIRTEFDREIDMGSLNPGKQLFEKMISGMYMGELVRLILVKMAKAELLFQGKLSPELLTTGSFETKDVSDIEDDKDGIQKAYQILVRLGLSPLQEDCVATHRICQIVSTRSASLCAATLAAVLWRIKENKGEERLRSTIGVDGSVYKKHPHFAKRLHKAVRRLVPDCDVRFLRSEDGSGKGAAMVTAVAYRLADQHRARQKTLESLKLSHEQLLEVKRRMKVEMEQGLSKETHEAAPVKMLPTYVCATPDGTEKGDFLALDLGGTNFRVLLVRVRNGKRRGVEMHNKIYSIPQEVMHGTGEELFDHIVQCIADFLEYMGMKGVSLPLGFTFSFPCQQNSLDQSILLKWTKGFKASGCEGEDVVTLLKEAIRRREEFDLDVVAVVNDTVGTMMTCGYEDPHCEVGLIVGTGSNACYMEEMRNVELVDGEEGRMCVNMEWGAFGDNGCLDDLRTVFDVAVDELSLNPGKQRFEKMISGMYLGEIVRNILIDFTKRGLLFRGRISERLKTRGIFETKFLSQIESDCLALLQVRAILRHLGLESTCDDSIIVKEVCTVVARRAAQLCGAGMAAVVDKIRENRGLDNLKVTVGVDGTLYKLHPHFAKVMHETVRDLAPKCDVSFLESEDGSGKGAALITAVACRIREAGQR
The series is described as follows: (§1) Induction of HK2 degradation in mouse 4T1 cells measured for 36 hrs. It is filed as cell-based.

The target in the next series is T2, Hexokinase-2 (Mus musculus, UniProt O08528).
T2 sequence (O08528 whole entry): T1 sequence (whole entry)
The series is described as §1. The class given is cell-based.

In series [3] the target is T1, Hexokinase-2 (Mus musculus). The series is described as follows: Induction of HK2 degradation in mouse 4T1 cells upto 200 uM measured at 12 to 36 hrs. It is filed as cell-based. The conditions noted are these: time 12-36 hrs.
For series [4], the target named is T3, Hexokinase-2 (Homo sapiens) (UniProt P52789).
T3 sequence (whole entry): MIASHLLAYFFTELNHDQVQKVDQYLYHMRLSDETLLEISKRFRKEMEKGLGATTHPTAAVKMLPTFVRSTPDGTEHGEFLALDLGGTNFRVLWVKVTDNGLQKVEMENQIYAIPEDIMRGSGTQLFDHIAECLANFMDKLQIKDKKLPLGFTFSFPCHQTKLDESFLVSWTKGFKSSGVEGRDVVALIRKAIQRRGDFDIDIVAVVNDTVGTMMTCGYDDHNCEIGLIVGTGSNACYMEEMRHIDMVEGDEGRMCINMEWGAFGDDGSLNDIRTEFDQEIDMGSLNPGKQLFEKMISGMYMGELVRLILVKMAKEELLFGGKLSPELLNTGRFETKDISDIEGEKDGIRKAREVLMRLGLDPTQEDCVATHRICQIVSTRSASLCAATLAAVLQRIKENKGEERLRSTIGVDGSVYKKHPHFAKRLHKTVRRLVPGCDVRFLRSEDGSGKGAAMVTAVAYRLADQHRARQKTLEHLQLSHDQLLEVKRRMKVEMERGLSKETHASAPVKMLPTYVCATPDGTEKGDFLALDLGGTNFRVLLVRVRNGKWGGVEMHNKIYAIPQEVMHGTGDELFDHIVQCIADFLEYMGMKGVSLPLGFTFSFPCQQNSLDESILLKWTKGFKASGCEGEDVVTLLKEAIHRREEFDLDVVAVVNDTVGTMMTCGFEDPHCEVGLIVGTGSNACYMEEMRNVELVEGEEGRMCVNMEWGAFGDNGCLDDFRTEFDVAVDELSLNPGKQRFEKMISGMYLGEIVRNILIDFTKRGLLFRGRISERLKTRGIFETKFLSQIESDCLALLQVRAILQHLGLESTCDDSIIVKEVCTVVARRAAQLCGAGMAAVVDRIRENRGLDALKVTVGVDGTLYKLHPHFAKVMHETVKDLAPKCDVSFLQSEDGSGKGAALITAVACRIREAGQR
Briefly: Induction of HK2 degradation in human MDA-MB-231 cells assessed as increase in Bax expression at 20 uM measured for 36 hrs by Western blot analysis. It is filed as cell-based.

Series [5] deals with 4T1. The series is described as follows: Antitumor activity against mouse 4T1 cells xenografted in BALB/c mouse assessed as reduction in tumor growth at 50 mg/kg, ip measured after 23 days. It is filed as functional, organism-based. The settings on record: time 23.0 day.
A short description of series [6]: Toxicity in BALB/c mouse implanted with mouse 4T1 cells assessed as pathological changes in spleen at 50 mg/kg, ip measured after 25 days by Hematoxylin -eosin staining based analysis. It is filed as organism-based. The conditions noted are these: in vivo, 600 h, time 25 day.
For series [7], the system named is 4T1. Briefly: Antitumor activity against mouse 4T1 cells implanted in BALB/c mouse model assessed as reduction in HK2 expression level at 50 mg/kg, ip measured after 25 days by Western blot analysis. The class given is functional, organism-based. The conditions noted are these: time 25.0 day. A general note: A western blot detects proteins with antibodies after separation by electrophoresis.

Series [8] deals with 4T1. The series is described as follows: Antitumor activity against mouse 4T1 cells implanted in BALB/c mouse model assessed as reduction tumor cell proliferation at 50 mg/kg, ip measured after 25 days by H and E staining based analysis. The class given is functional, organism-based. The settings on record: time 25.0 day.
Series [9] relates to 4T1. The series is described as follows: Antitumor immunity against mouse 4T1 cells implanted in BALB/c mouse model assessed as increase in N-terminal GSDME expression in tumor. It is filed as functional, cell-based.
In series [10] the test system is 4T1. The series is described as follows: Antitumor immunity against mouse 4T1 cells implanted in BALB/c mouse model assessed as increase in HMGB1 release in tumor. The class given is functional, cell-based.
The test system of series [11] is 4T1. Briefly: Antitumor immunity against mouse 4T1 cells implanted in BALB/c mouse model assessed as decrease in PD-L1 protein expression in tumor. The class given is functional, cell-based.
A short description of series [12]: Toxicity in BALB/c mouse implanted with mouse 4T1 cells assessed as effect on hematocrit level at 50 mg/kg, ip measured after 25 days in presence of cisplatin by routine blood test. It is filed as organism-based. The conditions noted are these: in vivo, 600 h, time 25 day.
Series [13] is described as follows: Toxicity in BALB/c mouse implanted with mouse 4T1 cells assessed as effect on mean corpuscular volume at 50 mg/kg, ip measured after 25 days in presence of cisplatin by routine blood test. It is filed as organism-based. The settings on record: in vivo, 600 h, time 25 day.
The nature of series [14]: Toxicity in BALB/c mouse implanted with mouse 4T1 cells assessed as pathological changes in spleen at 50 mg/kg, ip measured after 25 days in presence of cisplatin by Hematoxylin -eosin staining based analysis. It is filed as organism-based. The conditions noted are these: in vivo, 600 h, time 25 day.

In the case of `O=C1CCC(N2C(=O)c3cccc(NCCCCNC(=O)c4nn(Cc5ccc(Cl)cc5Cl)c5ccccc45)c3C2=O)C(=O)N1` (configuration not stated), the “Ratio IC50” value in the series on HGC-27 stood at 12.7. Also, the outcome (in the series with MDA-MB-231; in series [3]; in [4]; in the series with 4T1 [5]; in the series on 4T1 [7]; in the series on 4T1 [8]) was Active. The result in the series with 4T1 [9], with 4T1 [10] and in the series on 4T1 [11] was Active. For the same compound, the inhibition result with 4T1 [1] was “Active”. The Activity entry in [2] was “Dose-Dependent Effect”; in series [6], “Non-Toxic”; in series [12] it was “Non-Toxic”; in series [13] it was “Non-Toxic”; in series [14], “Non-Toxic”. At Hexokinase-2, this compound yielded a DC50 of 2.56 µM.
